{"source": "ChEMBL document CHEMBL1811849", "about": "“Development of a plate-based scintillation proximity assay for the mycobacterial AftB enzyme involved in cell wall arabinan biosynthesis” (Bioorg Med Chem, 2010)", "key": {"[1]": {"test_system": "Mycolicibacterium smegmatis", "assay": "Activity of AftB in Mycobacterium smegmatis membrane assessed as formation of biosynthetic products by TLC based assay", "type": "cell membranes"}, "[2]": {"test_system": "Mycolicibacterium smegmatis", "assay": "Activity of AftB in Mycobacterium smegmatis membrane/p60 fraction assessed as incorporation of DP[3H]A to compound to generate biotinylated trisaccharide with beta-(1 to 2) Araf residue by SPA assay"}}, "note": "Activity calls are given as the source filed them. The calls are words filed in the database; no cut-off is given here."}
{"compound": "C=CCCCO[C@H]1O[C@H](CO[C@H]2O[C@H](CO)[C@@H](O)[C@@H]2O)[C@@H](O)[C@@H]1O", "values": [{"measurement": "Activity", "setting": "[1]", "result": "Active"}]}
{"compound": "O=C(CCCC[C@@H]1SC[C@@H]2NC(=O)N[C@@H]21)NCCSCCCCCO[C@H]1O[C@H](CO[C@H]2O[C@H](CO)[C@@H](O)[C@@H]2O)[C@@H](O)[C@@H]1O", "values": [{"measurement": "Km", "setting": "[2]", "result": 40.9, "unit": "µM"}]}
{"compound": "C=CCCCO[C@H]1O[C@H](CO[C@H]2O[C@H](CO[C@H]3O[C@H](CO[C@H]4O[C@H](CO)[C@@H](O)[C@@H]4O)[C@@H](O)[C@@H]3O)[C@@H](O)[C@@H]2O)[C@@H](O)[C@@H]1O", "values": [{"measurement": "Activity", "setting": "[1]", "result": "Active"}]}
{"compound": "C=CCCCO[C@H]1O[C@H](CO[C@H]2O[C@H](CO[C@H]3O[C@H](CO)[C@@H](O)[C@@H]3O)[C@@H](O)[C@@H]2O)[C@@H](O)[C@@H]1O", "values": [{"measurement": "Activity", "setting": "[1]", "result": "Active"}]}
